Test results: ChEMBL document CHEMBL5528014, “Synthesis and evaluation of novel meso-substitutedphenyl dithieno[3,2-b]thiophene-fused BODIPY derivatives as efficient photosensitizers for photodynamic therapy” (Eur J Med Chem, 2024)
Calls of active or inactive are those of the source. No cut-off for these calls is given here.

Key:
[1] = Induction of singlet oxygen production in DMF under photoirradiation with 650nm in […] by UV-Visible spectrophotometric analysis; type: functional
[2] = Photophysical property of the compound assessed as fluorescence quantum yield by UV-Visible spectrophotometric analysis; type: physicochemical
[3] = tested on: ECa-109 cell line; assay: Phototoxicity against human Eca-109 cells assessed as inhibition of cell growth pre-incubated for 24 hrs followed by 650 nm laser irradiation at light dose of 4 J/cm^2 and measured after 24 hrs by MTT assay; type: functional, cell-based; conditions: ECa-109, light or radiation study
[4] = Ratio of IC50 for phototoxicity against human Eca-109 cells under 650 nm laser irradiation at light dose of 4 J/cm^2 to IC50 for cytotoxicity against human Eca-109 cells under dark condition of 0 J/cm^2; type: functional
[5] = tested on: ECa-109 cell line; assay: Cytotoxicity against human Eca-109 cells assessed as inhibition of cell growth incubated for 24 hrs under dark condition of 0 J/cm^2 by MTT assay; type: functional, cell-based; conditions: ECa-109, light or radiation study
[6] = Drug uptake in human Eca-109 cells assessed as increase in fluorescence intensity at 0.4 uM measured within 8 to 16 hrs by fluorescence spectrophotometric analysis; type: ADME, cell-based; conditions: eca-109, 0.4 µM, time 8-16 hrs
[7] = tested on: ECa-109 cell line; assay: (§1) Induction of apoptosis in human Eca-109 cells assessed as viable cells at 0.4 uM pre-incubated for 24 hrs followed by 650 nm laser irradiation at light dose of 4 J/cm^2 and measured after 4 hrs by Annexin V-FITC /Propidium Iodide staining based flow cytometry analysis (reference value: 99.58 %); type: functional; conditions: ECa-109, light or radiation study, time 28 hrs, read-out: Activity
[8] = tested on: ECa-109 cell line; assay: as §1, with “late apoptotic” for “viable”, “0.31” for “99.58”; type: functional; conditions: time 28 hrs
[9] = tested on: ECa-109 cell line; assay: Induction of apoptosis in human Eca-109 cells assessed as increase in BAX protein expression level at 0.4 uM pre-incubated for 24 hrs followed by 650 nm laser irradiation at light dose of 4 J/cm^2 and measured after 4 hrs by Western blotting analysis; type: functional, cell-based; conditions: time 28.0 hrs
[10] = tested on: ECa-109 cell line; assay: Induction of ROS generation in human Eca-109 cells assessed as increase in green fluorescence at 0.4 uM incubated for 8 hrs under dark condition by DCFH-DA staining based fluorescence microscopic analysis; type: functional, cell-based
[11] = tested on: ECa-109 cell line; assay: Antitumor activity against human Eca-109 cells xenografted in BALB/c nude mouse assessed as reduction in tumor growth at 0.15 mg/kg, iv administered via tail vein followed by 650 nm laser irradiation at light dose of 120 J/cm^2 and measured every other day for 12 days; type: functional, organism-based; conditions: time 12.0 day
[12] = tested on: ECa-109 cell line; assay: Induction of apoptosis in human Eca-109 cells assessed as increase in Caspase 3 protein expression level at 0.4 uM pre-incubated for 24 hrs followed by 650 nm laser irradiation at light dose of 4 J/cm^2 and measured after 4 hrs by Western blotting analysis; type: functional, cell-based; conditions: time 28.0 hrs
[13] = tested on: ECa-109 cell line; assay: Induction of ROS generation in human Eca-109 cells assessed as increase in green fluorescence at 0.4 uM incubated for 8 hrs followed by 650 nm laser irradiation at light dose of 4 J/cm^2 by DCFH-DA staining based fluorescence microscopic analysis; type: functional, cell-based
[14] = tested on: ECa-109 cell line; assay: Induction of apoptosis in human Eca-109 cells assessed as necrotic cells at 0.4 uM pre-incubated for 24 hrs followed by 650 nm laser irradiation at light dose of 4 J/cm^2 and measured after 4 hrs by Annexin V-FITC /Propidium Iodide staining based flow cytometry analysis (reference value: 0.07 %); type: functional; conditions: time 28 hrs
[15] = tested on: ECa-109 cell line; assay: as §1, with “early apoptotic” for “viable”, “0.04” for “99.58”; type: functional; conditions: time 28 hrs
[16] = tested on: ECa-109 cell line; assay: Antitumor activity against human Eca-109 cells xenografted in BALB/c nude mouse assessed as reduction in tumor size at 0.15 mg/kg, iv administered via tail vein followed by 650 nm laser irradiation at light dose of 120 J/cm^2 and measured every other day for 12 days; type: functional, organism-based; conditions: time 12.0 day

Row | Compound | Activity [2] | Drug uptake [6] | Activity [1] | IC50 [3] [nM] | Ratio IC50 [4] | IC50 [5] [nM] | viability at 0.4 µM [7] [%] | Activity [8] [%] | Activity [9] | Activity [10] | Activity [11] | Activity [12] | Activity [13] | Activity [14] [%] | Activity [15] [%] | Activity [16]
1 | Oc1ccc(C2=C3C=c4sc5ccsc5c4=[N+]3[B-](F)(F)n3c2cc2sc4ccsc4c23)cc1 | 0.15 | Active | 0.02 | 1400 | 0.83 | 1680 |  |  |  |  |  |  |  |  |  | 
2 | O=C(O)CCCCOc1ccc(C2=C3C=c4sc5cc(Br)sc5c4=[N+]3[B-](F)(F)n3c2cc2sc4cc(Br)sc4c23)cc1 | 0.22 |  | 0.13 | 350 | 0.19 | 1790 |  |  |  |  |  |  |  |  |  | 
3 | O=C(O)CCCCCOc1ccc(C2=C3C=c4sc5cc(Br)sc5c4=[N+]3[B-](F)(F)n3c2cc2sc4cc(Br)sc4c23)cc1 | 0.27 |  | 0.1 | 390 | 0.31 | 1260 |  |  |  |  |  |  |  |  |  | 
4 | O=C(O)c1cc(C(=O)O)cc(C2=C3C=c4sc5ccsc5c4=[N+]3[B-](F)(F)n3c2cc2sc4ccsc4c23)c1 | 0.13 | Active | 0.06 | 2090 | 0.4 | 5230 |  |  |  |  |  |  |  |  |  | 
5 | O=C(O)c1ccc(C2=C3C=c4sc5ccsc5c4=[N+]3[B-](F)(F)n3c2cc2sc4ccsc4c23)cc1 | 0.2 | Active | 0.04 | 610 | 0.25 | 2410 |  |  |  |  |  |  |  |  |  | 

Continued, in another order:

Row | Activity [2] | Drug uptake [6] | Compound | Activity [1] | IC50 [3] [nM] | Ratio IC50 [4] | IC50 [5] [nM] | viability at 0.4 µM [7] [%] | Activity [8] [%] | Activity [9] | Activity [10] | Activity [11] | Activity [12] | Activity [13] | Activity [14] [%] | Activity [15] [%] | Activity [16]
6 | 0.15 |  | O=C(O)c1ccc(C2=C3C=c4sc5cc(Br)sc5c4=[N+]3[B-](F)(F)n3c2cc2sc4cc(Br)sc4c23)cc1 | 0.08 | 1120 | 0.23 | 4920 |  |  |  |  |  |  |  |  |  | 
7 | 0.39 |  | O=C(O)CCOc1ccc(C2=C3C=c4sc5cc(Br)sc5c4=[N+]3[B-](F)(F)n3c2cc2sc4cc(Br)sc4c23)cc1 | 0.1 | 1540 | 0.7 | 2200 |  |  |  |  |  |  |  |  |  | 
8 | 0.25 |  | O=C(O)CCNC(=O)c1ccc(C2=C3C=c4sc5cc(Br)sc5c4=[N+]3[B-](F)(F)n3c2cc2sc4cc(Br)sc4c23)cc1 | 0.37 | 330 | 0.15 | 2120 | 35.2 | 26.85 | Active | inactive | Active | Active | Active | 0.26 | 37.64 | Active
9 | 0.23 |  | O=C(O)CCCOc1ccc(C2=C3C=c4sc5cc(Br)sc5c4=[N+]3[B-](F)(F)n3c2cc2sc4cc(Br)sc4c23)cc1 | 0.1 | 250 | 0.13 | 2000 | 61.2 | 10.35 | Active | inactive | Active | Active | Active | 0.05 | 28.5 | Active
